Test results published in US20110173709A1, “ECTOPIC, ORTHOTOPIC MODEL FOR REVASCULARIZATION AND TUMOR ASSESSMENT” (Sidney Kimmel Cancer Center, priority 2007, published 2011).

System: N202-H2BGFP tumor spheroids
Assay: Doxorubicin treatment of N202-H2BGFP tumor spheroids in dorsal skinfold window chamber
Assay type: in vivo, mouse
Conditions: single dose 1 or 5 mg/kg via the tail vein after re-vascularization, nu/nu nude mice

COc1cccc2c1C(=O)c1c(O)c3c(c(O)c1C2=O)C[C@@](O)(C(=O)CO)C[C@@H]3O[C@H]1C[C@H](N)[C@H](O)[C@H](C)O1 [Doxorubicin] was tested, and the “effect on the growing tumor implanted on the engrafted mammary fat pad” value (orthotopic engrafted mammary fat pad, over a 2 week period, FIG. 6B) was “little to no effect” and the “effect on the growing tumor implanted on the skinfold” value (tumor implanted on skinfold, FIG. 6A) was “essentially tumor stasis”.
